The values that follow are results of earlier work, collected in PMC3693451 (Bioorganic & medicinal chemistry letters, 2011).

Data set [1] deals with CB receptors. To be noted: read-out: Ki at both CB receptors.
Data set [2] deals with CB receptors.
The target of a further data set is human CB1. To be noted: read-out: human CB1 Ki.
Data set [3] concerns rat CB1, human CB1 and human CB2 receptors.
The subject of data set [4] is chronic neuropathic and inflammatory pain. To be noted: rat.
The conditions of data set [5]: 214 targets.

As a reminder, the Ki is the dissociation constant of the complex between target and ligand, obtained from inhibition or displacement. With `O=S(=O)(CCCC(F)(F)F)Oc1cccc(Oc2cccc3c2C[C@H](CO)C3)c1` [BAY 38–7271, (−)-(R)-3-(2-hydroxymethylindanyl-4-oxy)phenyl-4,4,4-trifluoro-1-sulfonate], the neuroprotective properties entry is “pronounced neuroprotective properties”. In addition, the inhibition constant Ki on CB receptors [1] was 0.46 to 1.85 nM. In the data set with CB receptors [2], the “agonist type at both CB receptors” value was “full agonist”.

With `N#Cc1c(Oc2cccc(OS(=O)(=O)CCCC(F)(F)F)c2)cccc1C(F)(F)F` [BAY 59–3074], the inhibition constant Ki on human CB1 is 48.3 nM. For the same compound, the “agonist properties in [35S]GTPγS binding assays” value in data set [3] is “partial agonist”. Also, in data set [4], the “effect in chronic neuropathic and inflammatory pain models” value was “pronounced antihyperalgesic and antiallodynic properties”. The “selectivity for CB receptors in target screen” value in data set [5] is recorded as “no significant interactions with other targets”.
